Patent publication US20200247815A1, “PYRAZOLYL-CONTAINING TRICYCLIC DERIVATIVE, PREPARATION METHOD THEREFOR AND USE THEREOF” (Jiangsu Hansoh Pharmaceutical Group Co., Ltd., priority 2017, published 2020)

How the values were obtained:
[1] = Solubility (statement, no method); format: physicochemical
[2] = test system: pancreatic cancer tumor cell Mia Paca 2; test: Inhibition of tumor cell proliferation (CellTiter-Glo); format: cell-based; settings: Homo sapiens, Miapaca-2 cell, 3-7 days
Method: The object of this test example is to determine the inhibition effect of the present compound on tumor cell proliferation activity. The inhibition activity of the compound on tumor cell proliferation was determined by CellTiter-Glo method, and the half inhibitory concentration IC50 of the compound for inhibiting cell proliferation activity was obtained, 50-100 μL of tumor cell suspension was inoculated in a 96-well cell culture plate with a density of 1˜5*10^4 cells/ml. The plate was incubated in an incubator for 16˜24 hours (37° C., 5% CO2). Solutions of test compounds at different concentrations obtained by gradient dilution were added to the cells in the plate. The plate was incubated in an incubator for 3-7 days (37° C., 5% CO2), 50˜100 μL of CellTiter-Glo reagent was added to each well. The plate was shaked for 10 minutes, and left to stand at room temperature for 10 minutes. The value of the chemiluminescence signal was determined by a microplate reader. The inhibition rate was calculated from the value of the chemiluminescence signal. IC50 of the compound was obtained by curve fitting based on the inhibition rate at different concentrations.
The inhibition effect of the present compound on pancreatic cancer tumor cell Mia Paca 2 proliferation activity was determined by the test, and the obtained IC50 value is shown in Table 2.

[3] = Pharmacokinetics assay in mice (oral, plasma); format: in vivo, Balb/c Mouse; settings: for Exposure in mouse plasma: dose of 50 mg/kg, oral; for Cmax / MRT / Tmax / half-life / AUC(0-t): mouse, male Balb/c mice, PO 50 mg/kg, plasma; for AUC(0-t): read-out: AUC0-24
Method: Balb/c Mouse was used as the test animal. The pharmacokinetic behavior of compounds of Example 1, 2 and 7 administrated orally was studied in mice (plasma).
170 g of PEG400 and 20 g of Solutol HS-15 were added to a 250 mL glass flask, and then 10 mL of NMP was added. The solution was mixed well by ultrasound for 10 minutes to obtain a clear solution.
11.2 mg of the compound of Example 1, 10.8 mg of the compound of Example 2 and 9.8 mg of the compound of Example 7 were weighted to a 4 mL glass flasks respectively, […], 2.160 mL and […] of the above solution were treated by ultrasound for 10 minutes to obtain a colorless clear solution with a concentration of 5 mg/mL.
After fasting overnight, the male Balb/c mice were administrated with the compounds (PO), the dose was 50 mg/kg, and the administration volume was 10 mL/kg.
Blood was taken before administration and at 0.25, 0.5, 1, 2, 4, 6, 8 and 24 hours after administration. The blood samples were stored in EDTA-2K tubes, and centrifuged for 6 minutes to separate the blood plasma. The plasma samples were stored at −80° C.

hERG potassium channel = target: T1, hERG potassium channel (Homo sapiens, UniProt Q12809); test: hERG potassium channel inhibition activity test (Qpatch, CHO-hERG cells); format: cell-based
T1 construct: expressed in transfected cells; host or cells: CHO-hERG cells
Method: 4.1.1 CHO-hERG cells were cultured in a 175 cm2 culture flask. After the cell density reached 60˜80%, the culture solution was removed. The cells were washed with 7 mL of PBS once, and dissociated with 3 mL of Detachin.
4.1.2 After completion of dissociation, the cells were neutralized with 7 mL of culture solution. The solution was centrifuged, and the supernate was removed. The cells were resuspended in 5 mL of culture solution. The cell indensity is ensured as […].
Single cell sealing impedance and formation of whole-cell mode were automatically performed by Qpatch instrument. After obtaining the whole-cell recording mode, the cell was clamped at −80 mV. The cell first underwent pre-voltage of −50 mV for 50 msec, then underwent depolarization stimulation at +40 mV for 5 sec, and then underwent repolarization at −50 mV for 5 sec. and then the voltage returned to −80 mV. The cell underwent the stimulation at the voltage every 15 sec, and the data were recorded for 2 min, then extracellular fluid was administrated, and then the data were recorded for 5 min. Then, the administration process begun. The concentration of the test compound started from the lowest concentration, each test concentration was administrated for 2.5 min. At least three cells were tested for each concentration.
4.4.1 20 mM mother liquor of the compound was diluted with extracellular fluid, 5 uL of 20 mM mother liquor of the compound was added with 2495 uL of extracellular fluid to obtain a concentration of 40 uM (500-fold dilution). The solution was subjected to a 3-fold serial dilution with extracellular fluid containing 0.2% DMSO to obtain a required final concentration.
This concentration of DMSO had no effect on hERG potassium channel.
The experimental data was analyzed by XLFit software.

T1 sequence (Q12809 whole entry): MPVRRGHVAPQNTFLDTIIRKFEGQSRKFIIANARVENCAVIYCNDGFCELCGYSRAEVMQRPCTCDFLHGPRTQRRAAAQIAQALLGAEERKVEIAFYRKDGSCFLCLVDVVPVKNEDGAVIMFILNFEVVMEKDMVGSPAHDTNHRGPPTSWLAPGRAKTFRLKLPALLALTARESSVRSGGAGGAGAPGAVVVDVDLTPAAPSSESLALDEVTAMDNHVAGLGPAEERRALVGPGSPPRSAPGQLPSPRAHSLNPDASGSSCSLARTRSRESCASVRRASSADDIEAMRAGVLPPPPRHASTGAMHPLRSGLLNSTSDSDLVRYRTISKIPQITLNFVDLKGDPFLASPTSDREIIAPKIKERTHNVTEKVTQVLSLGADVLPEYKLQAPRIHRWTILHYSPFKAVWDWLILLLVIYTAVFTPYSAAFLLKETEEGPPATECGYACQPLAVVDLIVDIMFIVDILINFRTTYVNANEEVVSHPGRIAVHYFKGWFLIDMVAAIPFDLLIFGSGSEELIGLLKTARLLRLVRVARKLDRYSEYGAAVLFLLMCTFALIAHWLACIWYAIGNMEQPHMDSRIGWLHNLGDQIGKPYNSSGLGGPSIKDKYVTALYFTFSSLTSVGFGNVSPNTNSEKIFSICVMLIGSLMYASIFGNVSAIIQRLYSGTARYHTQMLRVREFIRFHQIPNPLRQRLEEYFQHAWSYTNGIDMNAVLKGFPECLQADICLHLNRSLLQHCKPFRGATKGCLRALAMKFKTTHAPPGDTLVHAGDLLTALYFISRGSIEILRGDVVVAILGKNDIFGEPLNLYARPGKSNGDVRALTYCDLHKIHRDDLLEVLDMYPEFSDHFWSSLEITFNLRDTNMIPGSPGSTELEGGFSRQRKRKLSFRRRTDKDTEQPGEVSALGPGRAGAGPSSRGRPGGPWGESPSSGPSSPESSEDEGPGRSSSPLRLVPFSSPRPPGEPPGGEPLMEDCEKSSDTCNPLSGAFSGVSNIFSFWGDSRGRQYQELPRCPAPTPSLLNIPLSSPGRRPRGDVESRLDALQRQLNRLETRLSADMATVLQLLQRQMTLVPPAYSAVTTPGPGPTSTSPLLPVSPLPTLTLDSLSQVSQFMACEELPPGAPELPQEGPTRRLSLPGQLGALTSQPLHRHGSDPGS

| SMILES | Solubility compared with ERK compounds of the prior art [1] | IC50 [2] | Exposure in mouse plasma [3] | Cmax [3] | MRT [3] | Tmax [3] | half-life [3] | AUC(0-t) [3] | Inhibition effect on cardiac hERG potassium channel (hERG potassium channel) | IC50 (hERG potassium channel; CHO-hERG cells, highest test concentration 40 uM, read-out: hERG (inhibition effect on hERG current)) |
| --- | --- | --- | --- | --- | --- | --- | --- | --- | --- | --- |
| C[C@@H](NC(=O)c1cc2cc3c(-c4ccncc4)n[nH]c3cc2[nH]1)c1ccccc1 [Example 1, (R)—N-(1-phenylethyl)-3-(pyridin-4-yl)-1,7-dihydropyrrolo[3,2-f]indazole-6-carboxamide] | higher solubility | 123 nM | good exposure | 1310 ng/mL | 8.99 h | 0.5 h | 6.59 h | 14700 ng·h/mL | – | – |
| C[C@@H](NC(=O)c1nc2cc3c(-c4ccncc4)n[nH]c3cc2[nH]1)c1ccccc1 [Example 2, (R)—N-(1-phenylethyl)-3-(pyridin-4-yl)-1,7-dihydroimidazo[4,5-f]indazole-6-carboxamide] | higher solubility | 69.1 nM | good exposure | 15900 ng/mL | 2.44 h | 2 h | 0.82 h | 50400 ng·h/mL | no inhibition effect | > 40000 nM |
